PubChem BioAssay (NCI)
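Results reflect a 48-hour exposure of cells in 96-well plates to compound at five concentrations. GI50 = concentration required for 50% inhibition of growth. TGI: concentration producing complete growth inhibition.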

Key:
Test in all cases: inhibition of tumour cell growth, NCI panel, 48 h
[1] = system: M14 melanoma
[2] = system: NCI-H522 lung
[3] = system: UACC-257 melanoma
[4] = system: SK-MEL-5 melanoma
[5] = system: SN12C renal
[6] = system: SNB-75 CNS
[7] = system: HT29 colon
[8] = system: OVCAR-5 ovarian
[9] = system: NCI-H460 lung
[10] = system: SF-268 CNS
[11] = system: A549 NSCLC
[12] = system: TK-10 renal
[13] = system: OVCAR-3 ovarian
[14] = system: NCI/ADR-RES ovarian
[15] = system: SF-539 CNS
[16] = system: PC-3 prostate
[17] = system: MCF7 breast
[18] = system: A498 renal
[19] = system: CCRF-CEM leukemia
[20] = system: SF-295 CNS
[21] = system: RPMI-8226 leukemia
[22] = system: OVCAR-8 ovarian
[23] = system: HS 578T breast
[24] = system: HCC-2998 colon
[25] = system: HOP-62 NSCLC
[26] = system: EKVX NSCLC
[27] = system: MDA-MB-435
[28] = system: UO-31 renal
[29] = system: DU-145 prostate
[30] = system: IGROV1 ovarian
[31] = system: U251 CNS
[32] = system: HCT-116 colon
[33] = system: KM12 colon
[34] = system: OVCAR-4 ovarian
[35] = system: HCT-15 colon
[36] = system: HOP-92 NSCLC
[37] = system: LOX IMVI melanoma
[38] = system: ACHN renal
[39] = system: T-47D breast
[40] = system: MDA-MB-231 breast
[41] = system: CAKI-1 renal
[42] = system: COLO 205 colon
[43] = system: SW-620 colon
[44] = system: K-562 leukemia
[45] = system: NCI-H23 lung
[46] = system: SK-MEL-28 melanoma
[47] = system: MOLT-4 leukemia
[48] = system: HL-60(TB) leukemia
[49] = system: NCI-H226 lung
[50] = system: UACC-62 melanoma
[51] = system: SK-OV-3 ovarian
[52] = system: SR leukemia
[53] = system: MALME-3M melanoma
[54] = system: SNB-19 CNS
[55] = system: 786-0 renal
[56] = system: RXF 393 renal

## COc1cc(/C=C2\C(=O)Nc3ccccc32)cc(OC)c1O
[1]
  GI50: 2.76 µM
  TGI: 11 µM
[2]
  GI50: 1.72 µM
  TGI: 5.1 µM
[3]
  GI50: 1.81 µM
  TGI: 18.7 µM
[4]
  GI50: 2.87 µM
  TGI: 10.8 µM
[5]
  GI50: 3.61 µM
  TGI: 23.3 µM
[6]
  GI50: 1.17 µM
  TGI: 8.44 µM
[7]
  GI50: 9.07 µM
  TGI: 31.1 µM
[8]
  GI50: 4.71 µM
  TGI: 18.8 µM
[9]
  GI50: 3.12 µM
  TGI: 11.7 µM
[10]
  GI50: 4.24 µM
  TGI: 29.1 µM
[11]
  GI50: 4.91 µM
  TGI: 48.1 µM
[12]
  GI50: 7.14 µM
  TGI: 37.1 µM
[13]
  GI50: 1.98 µM
  TGI: 5.05 µM
[14]
  GI50: 2.47 µM
  TGI: 7.62 µM
[15]
  GI50: 2.5 µM
  TGI: 13.3 µM
[16]
  GI50: 21 µM
  TGI: > 100 µM
[17]
  GI50: 0.728 µM
  TGI: 15 µM
[18]
  GI50: 2.08 µM
  TGI: 15.8 µM
[19]
  GI50: 5.16 µM
  TGI: > 100 µM
[20]
  GI50: 2.99 µM
  TGI: 31.2 µM
[21]
  GI50: 5.47 µM
  TGI: 27.5 µM
[22]
  GI50: 4.98 µM
  TGI: 29.7 µM
[23]
  GI50: 1.77 µM
  TGI: 6.11 µM
[24]
  GI50: 11.9 µM
  TGI: 24.5 µM
[25]
  GI50: 4.24 µM
  TGI: 23.2 µM
[26]
  GI50: 4.86 µM
  TGI: 48.2 µM
[27]
  GI50: 0.649 µM
  TGI: 2.21 µM
[28]
  GI50: 2.63 µM
  TGI: 19.9 µM
[29]
  GI50: 5.35 µM
  TGI: 46.4 µM
[30]
  GI50: 3.72 µM
  TGI: 20.4 µM
[31]
  GI50: 2.37 µM
  TGI: 14 µM
[32]
  GI50: 3.29 µM
  TGI: 13.5 µM
[33]
  GI50: 2.53 µM
  TGI: 11.5 µM
[34]
  GI50: 4.95 µM
  TGI: 31.3 µM
[35]
  GI50: 3.16 µM
  TGI: 15.1 µM
[36]
  GI50: 4.15 µM
  TGI: 49.2 µM
[37]
  GI50: 3.99 µM
  TGI: 16.3 µM
[38]
  GI50: 4.7 µM
  TGI: 22.2 µM
[39]
  GI50: 3.56 µM
  TGI: 84.5 µM
[40]
  GI50: 3.09 µM
  TGI: 20.8 µM
[41]
  GI50: 2.93 µM
  TGI: 25.3 µM
[42]
  GI50: 12.3 µM
  TGI: 26.8 µM
[43]
  GI50: 3.39 µM
  TGI: 13.1 µM
[44]
  GI50: 2.12 µM
  TGI: > 100 µM
[45]
  GI50: 4.97 µM
  TGI: 34.2 µM
[46]
  GI50: 5.06 µM
  TGI: 23 µM
[47]
  GI50: 3.82 µM
  TGI: 92.3 µM
[48]
  GI50: 2.8 µM
  TGI: 11.1 µM
[49]
  GI50: 17.7 µM
  TGI: > 100 µM
[50]
  GI50: 2.59 µM
  TGI: 11.1 µM
[51]
  GI50: 3.88 µM
  TGI: 21.6 µM
[52]
  GI50: 1.6 µM
  TGI: 16.9 µM
[53]
  GI50: 2.98 µM
  TGI: 21.8 µM
[54]
  GI50: 4.45 µM
  TGI: 55.6 µM
[55]
  GI50: 7.07 µM
  TGI: 27.5 µM
[56]
  GI50: 2.52 µM
  TGI: 8.41 µM
